# Laboratory results taken from patent publication US20230117470A1, “SUBSTITUTED PYRAZOLE COMPOUNDS AS TOLL RECEPTOR INHIBITORS” (BRISTOL-MYERS SQUIBB COMPANY, priority 2019, published 2023).
# Columns and labels:
# Assay type in all cases: cell-based
# human TLR9 = molecular target: T1, human TLR9 (Homo sapiens, UniProt Q9NR96); assay: TLR9 inhibition reporter assay (HEK-Blue cells, SEAP reporter, ODN2006 stimulation); settings: HEK-Blue cells overexpressing human TLR9, SEAP reporter, ODN2006 5 nM
# T1 construct: host or cells: HEK-Blue cells
# T1 sequence (Q9NR96 26-1032): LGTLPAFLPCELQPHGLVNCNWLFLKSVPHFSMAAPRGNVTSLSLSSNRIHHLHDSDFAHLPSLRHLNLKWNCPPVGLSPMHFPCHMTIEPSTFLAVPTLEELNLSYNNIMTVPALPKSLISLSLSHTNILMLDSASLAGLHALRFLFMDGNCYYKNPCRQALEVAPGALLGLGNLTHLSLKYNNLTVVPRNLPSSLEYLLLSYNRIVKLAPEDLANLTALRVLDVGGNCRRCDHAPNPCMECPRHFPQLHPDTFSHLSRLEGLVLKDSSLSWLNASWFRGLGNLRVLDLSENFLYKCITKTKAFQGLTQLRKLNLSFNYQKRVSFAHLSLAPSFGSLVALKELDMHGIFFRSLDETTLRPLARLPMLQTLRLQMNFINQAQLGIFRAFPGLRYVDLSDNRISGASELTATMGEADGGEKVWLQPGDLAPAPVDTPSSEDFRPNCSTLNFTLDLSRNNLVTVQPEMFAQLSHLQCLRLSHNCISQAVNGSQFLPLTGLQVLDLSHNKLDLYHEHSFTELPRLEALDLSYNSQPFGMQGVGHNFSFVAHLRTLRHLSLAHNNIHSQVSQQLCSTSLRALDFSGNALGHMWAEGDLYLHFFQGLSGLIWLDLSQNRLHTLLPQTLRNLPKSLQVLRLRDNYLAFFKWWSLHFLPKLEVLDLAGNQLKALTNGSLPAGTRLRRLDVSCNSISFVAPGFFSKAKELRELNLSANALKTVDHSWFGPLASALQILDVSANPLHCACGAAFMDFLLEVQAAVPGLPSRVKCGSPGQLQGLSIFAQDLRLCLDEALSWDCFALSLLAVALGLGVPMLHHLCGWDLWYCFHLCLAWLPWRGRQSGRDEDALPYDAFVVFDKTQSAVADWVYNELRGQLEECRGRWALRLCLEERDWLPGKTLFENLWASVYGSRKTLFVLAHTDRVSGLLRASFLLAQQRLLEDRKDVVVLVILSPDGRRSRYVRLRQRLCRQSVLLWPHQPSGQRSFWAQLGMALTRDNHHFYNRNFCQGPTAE
# In short: (§1)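 HEK-Blue cells overexpressing human TLR7, TLR8 or TLR9, with an NF-κB/AP-1-driven SEAP reporter, pre-treated 30 min at room temperature with compound (0.05 nM-50 μM final). Stimulated with 7.5 μM gardiquimod (TLR7), 15.9 μM R848 (TLR8) or 5 nM ODN2006 (TLR9), then 22 h at 37° C. SEAP read with HEK-Blue Detection; % inhibition set against agonist+DMSO and known-inhibitor wells.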
# human TLR8 = molecular target: T2, human TLR8 (Homo sapiens, UniProt Q9NR97); assay: TLR8 inhibition reporter assay (HEK-Blue cells, SEAP reporter, R848 stimulation); settings: HEK-Blue cells overexpressing human TLR8, SEAP reporter, R848 15.9 μM
# T2 construct: host or cells: HEK-Blue cells
# T2 sequence (Q9NR97 27-1041): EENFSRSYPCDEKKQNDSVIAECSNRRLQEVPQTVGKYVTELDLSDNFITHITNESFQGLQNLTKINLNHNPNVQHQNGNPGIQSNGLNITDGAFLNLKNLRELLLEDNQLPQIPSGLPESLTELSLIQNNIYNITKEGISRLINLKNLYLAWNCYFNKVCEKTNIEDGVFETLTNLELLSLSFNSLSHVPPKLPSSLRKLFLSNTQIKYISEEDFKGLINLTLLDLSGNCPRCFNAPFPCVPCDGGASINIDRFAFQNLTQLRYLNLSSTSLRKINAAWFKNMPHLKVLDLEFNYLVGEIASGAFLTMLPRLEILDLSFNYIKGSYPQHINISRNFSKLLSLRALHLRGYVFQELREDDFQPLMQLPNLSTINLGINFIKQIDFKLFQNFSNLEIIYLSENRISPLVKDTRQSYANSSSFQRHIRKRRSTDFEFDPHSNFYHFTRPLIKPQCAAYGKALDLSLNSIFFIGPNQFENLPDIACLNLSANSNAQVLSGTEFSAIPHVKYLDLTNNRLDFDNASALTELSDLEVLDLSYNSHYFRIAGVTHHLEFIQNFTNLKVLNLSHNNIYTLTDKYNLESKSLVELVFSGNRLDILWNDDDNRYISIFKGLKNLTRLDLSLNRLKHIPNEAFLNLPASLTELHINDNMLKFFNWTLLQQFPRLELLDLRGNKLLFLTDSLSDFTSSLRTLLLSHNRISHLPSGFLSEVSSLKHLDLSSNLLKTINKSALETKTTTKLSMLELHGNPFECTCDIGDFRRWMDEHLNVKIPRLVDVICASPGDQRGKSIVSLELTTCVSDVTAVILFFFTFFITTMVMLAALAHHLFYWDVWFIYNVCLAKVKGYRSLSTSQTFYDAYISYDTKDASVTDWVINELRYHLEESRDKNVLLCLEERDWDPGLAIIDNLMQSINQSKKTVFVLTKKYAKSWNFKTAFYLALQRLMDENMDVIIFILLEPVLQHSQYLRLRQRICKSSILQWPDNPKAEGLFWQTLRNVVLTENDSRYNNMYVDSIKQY
# In short: as §1
# human TLR7 = molecular target: T3, human TLR7 (Homo sapiens, UniProt Q9NYK1); assay: TLR7 inhibition reporter assay (HEK-Blue cells, SEAP reporter, gardiquimod stimulation); settings: HEK-Blue cells overexpressing human TLR7, SEAP reporter, gardiquimod 7.5 μM
# T3 construct: host or cells: HEK-Blue cells
# T3 sequence (Q9NYK1 27-1049): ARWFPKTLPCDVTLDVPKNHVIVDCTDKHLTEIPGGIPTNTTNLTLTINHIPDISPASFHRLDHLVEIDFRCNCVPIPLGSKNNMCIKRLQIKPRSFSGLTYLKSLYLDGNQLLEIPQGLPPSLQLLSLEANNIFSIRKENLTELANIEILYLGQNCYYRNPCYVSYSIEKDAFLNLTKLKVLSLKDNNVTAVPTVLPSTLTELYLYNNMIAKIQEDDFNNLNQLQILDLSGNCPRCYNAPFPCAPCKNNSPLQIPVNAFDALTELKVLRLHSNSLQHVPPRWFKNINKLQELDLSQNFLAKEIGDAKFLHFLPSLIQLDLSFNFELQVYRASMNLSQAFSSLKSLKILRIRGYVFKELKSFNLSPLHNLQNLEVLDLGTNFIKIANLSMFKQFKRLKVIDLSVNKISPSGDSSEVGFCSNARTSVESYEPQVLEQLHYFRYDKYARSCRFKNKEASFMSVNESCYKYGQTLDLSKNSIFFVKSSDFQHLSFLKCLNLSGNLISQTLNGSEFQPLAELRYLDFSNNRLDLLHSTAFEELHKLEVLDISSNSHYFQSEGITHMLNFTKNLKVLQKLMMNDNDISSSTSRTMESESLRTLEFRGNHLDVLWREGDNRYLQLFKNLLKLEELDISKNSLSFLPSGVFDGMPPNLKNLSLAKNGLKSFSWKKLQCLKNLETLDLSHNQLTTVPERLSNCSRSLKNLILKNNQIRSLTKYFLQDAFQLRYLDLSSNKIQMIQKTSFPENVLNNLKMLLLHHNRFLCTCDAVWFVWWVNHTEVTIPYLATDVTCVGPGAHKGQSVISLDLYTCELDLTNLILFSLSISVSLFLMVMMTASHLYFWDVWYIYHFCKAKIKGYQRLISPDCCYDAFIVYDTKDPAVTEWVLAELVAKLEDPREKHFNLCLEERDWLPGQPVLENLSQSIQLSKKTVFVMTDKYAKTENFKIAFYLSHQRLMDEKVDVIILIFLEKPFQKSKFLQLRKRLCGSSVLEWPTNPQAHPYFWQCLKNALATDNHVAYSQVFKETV
# In short: as §1
SMILES,IC50 (human TLR9) [nM],IC50 (human TLR8) [nM],IC50 (human TLR7) [nM]
Cc1cc(-c2[nH]nc(C(=O)N3CC[C@H](N)C3)c2C(C)C)cn2ncnc12 [Example 53],5070,0.79,0.94
Cc1cc(-c2[nH]nc(C(=O)NC3CCC(NCC(C)(C)C)CC3)c2C(C)C)cn2ncnc12 (stereo not drawn) [Example 126],13200,6.83,0.98
COc1cc(-c2[nH]nc(-c3ccc(C4CCN(CC(N)=O)CC4)cc3)c2C(C)C)cn2ncnc12 [compound 322],35800,4.67,15.7
Cc1cc(-c2[nH]nc(-c3cnc(N4CCNCC4)nc3)c2C(C)C)cn2ncnc12 [Example 407],> 50000,279,28.6
"Cc1cc(-c2[nH]nc(C3CCC(N4CCC(N(C)C)CC4)CC3)c2C(C)C)cn2ncnc12 (single isomer, unassigned) [Example 293]",6650,0.38,2.98
Cc1cc(-c2[nH]nc(C(=O)NC3CCNCC3)c2CC(F)(F)F)cn2ncnc12 [compound 194],9220,0.37,0.9
COCC(C)N[C@H]1CC[C@H](NC(=O)c2n[nH]c(-c3cc(C)c4ncnn4c3)c2C(C)C)CC1 (stereo partly drawn) [Example 146],16300,0.92,19.7
Cc1cc(-c2[nH]nc(C(=O)N[C@H]3CC[C@@H](NCCCC(F)(F)F)CC3)c2C(C)C)cn2ncnc12 [Example 88],4450,1.84,0.81
Cc1cc(-c2[nH]nc(C(=O)N[C@H]3CC[C@@H](N)CC3)c2C(C)C)cn2ncnc12 [Example 63],> 50000,14.6,24.8
"Cc1cc(-c2[nH]nc(C3CCC(NCCN(C)C)CC3)c2C(C)C)cn2ncnc12 (single isomer, unassigned) [Example 284]",> 50000,5.12,9.6
Cc1cc(-c2[nH]nc(C(=O)NCC3CN(C)CCO3)c2C(C)C)cn2ncnc12 (stereo not drawn) [Example 134],16100,1.28,1.23
Cc1cc(-c2[nH]nc(-c3ccncc3)c2C(C)C)cn2ncnc12 [Example 223],14300,10.3,8.65
"COCCN1CCC(NC(=O)c2n[nH]c(-c3cc(C)c4ncnn4c3)c2C(C)C)CC1 [Example 171, 4-isopropyl-N-(1-(2-methoxyethyl)piperidin-4-yl)-5-(8-methyl-[1,2,4]triazolo[1,5-a]pyridin-6-yl)-1H-pyrazole-3-carboxamide]",879,2.21,0.78
Cc1cc(-c2[nH]nc(C(=O)NCC3CN(C)CCO3)c2C(C)C)cn2ncnc12 (stereo not drawn) [Example 139],17500,26.3,4.96
Cc1cc(-c2[nH]nc(-c3cnc4c(c3)CNCC4)c2C(C)C)cn2ncnc12 [Example 230],43500,1.5,4.92
COc1cc(-c2[nH]nc(-c3cnc(C4CCN(C(C)C)CC4)cn3)c2C(C)C)cn2ncnc12 [Example 384],> 50000,20.1,39.5
COc1cc(-c2[nH]nc(-c3ccc(C4CCN(CC5CCOCC5)CC4)cn3)c2C(C)C)cn2ncnc12 [Example 375],35600,8.4,19.9
COc1cc(-c2[nH]nc(-c3ccc(C4CCN(CC#N)CC4)cn3)c2C(C)C)cn2ncnc12 [Example 394],> 50000,529,154
"CCN(C)C1CCC(c2n[nH]c(-c3cc(C)c4ncnn4c3)c2C(C)C)CC1 (single isomer, unassigned) [Example 283]",> 50000,1.7,18.8
COc1cc(-c2[nH]nc(-c3ccc(C4CN(CCS(C)(=O)=O)C4)cc3)c2C(C)C)cn2ncnc12 [Example 338],45600,31.1,10.1
COCCNc1ccc2nc(-c3n[nH]c(-c4cc(C)c5ncnn5c4)c3C(C)C)sc2c1 [Example 267],> 50000,7.16,24.3
"Cc1cc(-c2cc(C(=O)NC3CCN(C(C)C)CC3)n[nH]2)cn2ncnc12 [Example 178, N-(1-isopropylpiperidin-4-yl)-5-(8-methyl-[1,2,4]triazolo[1,5-a]pyridin-6-yl)-1H-pyrazole-3-carboxamide]",6710,2.44,1.69
CCN(CC)CC(=O)N1CCC(c2cnc(-c3n[nH]c(-c4cc(OC)c5ncnn5c4)c3C(C)C)cn2)CC1 [Example 404],> 50000,124,43.6
Cc1cc(-c2[nH]nc(C(=O)N3CC4CNCC4C3)c2C(C)C)cn2ncnc12 (stereo not drawn) [Example 59],> 50000,47.2,5.83
Cc1cc(-c2[nH]nc(C(=O)NC3CCC(NC4(C)COC4)CC3)c2C(C)C)cn2ncnc12 (stereo not drawn) [Example 124],28600,31.5,7.72
